Measurements taken from patent US20230346743A1, “COMBINATION CANCER THERAPIES” (The Board of Regents of the University of Oklahoma, priority 2018, published 2023).

Assay: Toxicity in the MESOV mouse model (body weight, ascites, kidney and liver histology)
Assay type: in vivo
Conditions: mouse, in vivo, ip
Procedure: Four-week-old female athymic nude mice (NCr-Foxn1^nu) were obtained from Taconic Biosciences under an approved Institutional Animal Care and Use Committee (IACUC) protocol. Mice were acclimatized for two weeks, fed with a standard diet and ear tagged during the acclimatization period. The timing to tumor development after intraperitoneal injection with various amounts of MESOV cells was determined in a pilot study prior. In the intervention experiment, 6-week-old mice were injected with 20 million MESOV human ovarian cancer cells in their intraperitoneal region. Drug treatment was initiated 4 weeks after the injection of cancer cells. Mice were randomized to four treatment groups before the start of treatment based on their body weight. There was no significant (one-way ANOVA, p >0.999) difference in body weight between groups at the start of treatment. Twelve mice were allocated to each group based on the power analysis performed while designing experiment. The sample size was determined to provide over 80% power to detect a 915 mm^3 difference in tumor volume between PRIMA-1^MET treatment alone and the drug combination treatment using a two-sided 0.05 level t-test. SHetA2 was administered by gavage at 60 mg/kg in 30% Kolliphor HS15 (Sigma). Controls were gavaged with Kolliphor HS15 (30% in water). PRIMA-1^MET (10 mg/kg) was dissolved in phosphate buffered saline and injected into the peritoneum of mice every other day. Initially SHetA2 dosing was administered every day for two weeks in SHetA2 alone and drug combination groups, and then switched to every other day for the next three weeks due to the stress caused to the mice by daily gavage. Oral gavaging was performed with sterile disposable plastic feeding tubes 20 ga × 38 mm (Instech Laboratories, Inc., Plymouth Meeting, PA, USA). Three mice in the drug combination group died after two weeks of drug treatment due to gavaging incidents. Body weights were recorded and animal health was monitored weekly. After the end of drug intervention period, all mice were euthanized by CO2 asphyxiation followed by exsanguination, their tumors and other vital organs were collected for further analysis. After measuring the total tumor weight, a portion of the tumors were snap frozen in liquid nitrogen and another portion was formalin fixed. The formalin fixed tissue samples were paraffin embedded, sectioned and stained with hematoxylin and eosins for histology studies. An experienced pathologist reviewed blinded histology slides for kidney and liver toxicity.

## CC1(C)CC(C)(C)c2cc(NC(=S)Nc3ccc([N+](=O)[O-])cc3)ccc2S1 [SHetA2]
  Effects on body weight or ascites (abdominal size): no significant effects on body weight or ascites
  Kidney or liver toxicity (H & E histology): did not cause kidney or liver toxicity
